Values of other authors, collected in patent publication US20050129759A1, “Sustained release compositions and controlled delivery method” (priority 2003, published 2005).

Conditions: not entrapped; stated as typical behaviour

NC(N)=O.OO [urea peroxide]
stability of free active agent: very unstable, shock sensitive, and deteriorates very quickly on contact with air humidity
